Where two headings read alike, the source gives them in different places.
Legend:
Sinapis alba myrosinase [1] = test: HPLC progress curves, pooled wavelengths; type: biochemical; settings: read-out: Km (μM) / HPLC, 0.1 M phosphate pH 7.4, 37 °C
Sinapis alba myrosinase [2] = test: HPLC progress curves, pooled wavelengths; type: biochemical; settings: read-out: Km (μM) / HPLC; 0.1 M phosphate pH 7.4, 37 °C; 14.52 U/ml myrosinase

## O=S(=O)(O)O/N=C(/Cc1ccccc1)S[C@@H]1O[C@H](CO)[C@@H](O)[C@H](O)[C@H]1O [compound 6, glucotropaeolin]
Sinapis alba myrosinase [1]; 4.84 U/ml myrosinase
  Km: 90.6 ± 6.8 µM

## O=S(=O)(O)O/N=C(\S[C@@H]1O[C@H](CO)[C@@H](O)[C@H](O)[C@H]1O)c1ccccc1 [compound 5, Phenyl glucosinolate]
Sinapis alba myrosinase [2]
  Km: 1160 ± 70 µM

## C=CC/C(=N/OS(=O)(=O)O)S[C@@H]1O[C@H](CO)[C@@H](O)[C@H](O)[C@H]1O [compound 4, Sinigrin]
Sinapis alba myrosinase [1]; 4.27 U/ml myrosinase
  Km: 168 ± 17 µM

From article PMC4305510 (Analytical biochemistry, 2014)
